Data taken from publication PMC5656322, “BAK1 is involved in AtRALF1-induced inhibition of root cell expansion” (PLoS Genetics, 2017).
“And” between values parts separate entries of the source, which are not always exact repeats. Equal entries are not always repeated. Where no end group is shown, it is not given here.

B1: Recombinant His-tagged AtRALF1 (peptide, UniProt Q9SRY3 72-120, looked up)
chain: ATTKYISYQSLKRNSVPCSRRGASYYNCQNGAQANPYSRGCSKIARCRS
modifications: ends and bridges not checked; also: His-tagged
notes: Rapid alkalinization factor 1 (AtRALF1), Arabidopsis thaliana; the active peptide (49 residues by the label RALF1(9–49)), cloned in pET-28b at NdeI/HindIII; printed molecular weight 7,631 Da; The printed mass of 7,631 Da would fit the 49-residue peptide with the His tag of pET-28b still on it (surmise); also called recombinant AtRALF1; R1
B2: Recombinant His-tagged HA-BAK1-ECD (domain or fragment, Arabidopsis thaliana, UniProt Q94F62 26-225, looked up)
chain: NAEGDALSALKNSLADPNKVLQSWDATLVTPCTWFHVTCNSDNSVTRVDLGNANLSGQLVMQLGQLPNLQYLELYSNNITGTIPEQLGNLTELVSLDLYLNNLSGPIPSTLGRLKKLRFLRLNNNSLSGEIPRSLTAVLTLQVLDLSNNPLTGDIPVNGSFSLFTPISFANTKLTPLPASPPPPISPTPPSPAGSNRITG
notes: BRI1-associated receptor kinase 1 (BAK1), Arabidopsis thaliana; extracellular domain; printed molecular weight 25,654.04 Da; HA-BAK1-ECD amplified from the pGADT7 construct, moved to pDEST17; also called BAK1-ED; not shown: HA, N-terminal, kept

Experiments:
[1] = test system: plants overexpressing the AtRALF1 gene; conditions: plants overexpressing AtRALF1 treated with BL; ref [9]; cited from earlier work
Text: AtRALF1-overexpressing plants are less sensitive to exogenous brassinosteroids (BRs). […] The expansin A5 gene (AtEXPA5), which is involved in the regulation of cell ...

[2] = test system: Arabidopsis seedlings, primary root; test: Root growth inhibition assay, vertical plates; type: in vivo, Arabidopsis thaliana; conditions: bak1 mutants, 0 or 1 μM BL, 8 days
[3] = test system: BAK1; test: BAK1 phosphorylation assay, anti-phosphothreonine; type: in vivo, Arabidopsis thaliana; conditions: pBAK1:BAK1-HA roots, 20 min; AtRALF1 1, 2, 10 μM; BL 0.1 μM
Description: Transgenic plants pBAK1:BAK1-6xHA were grown in vertical plates for 10–15 days. The plants were treated with 0.1 μM BL, 2 μM RALF1(9–49), 1 μM, 2 μM or 10 μM AtRALF1 for 20 min. The roots were isolated, and the microsomal fractions were obtained as described above. The microsomal fractions were incubated with anti-HA beads (EZview Red Anti-HA Affinity Gel, Sigma) for 2 h at 4 °C to immunoprecipitate the BAK1 protein. The unbound materials were removed by washing 3 times. Proteins were separated by SDS/PAGE and further analyzed by protein blotting using anti-HA (Thermo Scientific), or anti-phosphothreonine (Novus Biologicals), or anti-phosphoserine (Novus Biologicals) antibodies.

[4] = test system: cytosolic Ca^2+ in Arabidopsis seedlings; conditions: BL; ref [38]; cited from earlier work
[5] = test system: AtPRP3, AtHRGP2, CPD and DWF4 genes; conditions: cited from earlier work
Text: AtRALF1-overexpressing plants are less sensitive to exogenous brassinosteroids (BRs). […] AtRALF1 also induces two cytochrome P450 monooxygenase genes related to the BR biosynthetic pathway: Constitutive Photomorphism and Dwarfism (CPD) and DWARF4 (DWF4). We exposed the bak1 mutants to the same concentration of AtRALF1 and evaluated the capacity to induce the AtPRP3, AtHRGP2, CPD and DWF4 genes. None of the AtRALF1-inducible genes were ...

[6] = test system: BAK1 gene; conditions: BL hormone treatment, Arabidopsis plants; ref [29]; cited from earlier work
Text: It has been previously shown through microarray experiments that the treatment of Arabidopsis plants with AtRALF1 causes BAK1 gene induction by approximately 1.56-fold. Our data are consistent with that previous observation and add a new gene to the list of AtRALF1-inducible genes. […] The fact that AtRALF1 peptide and BL treatment both induce BAK1 gene expression provides further evidence that BAK1 ...

[7] = test system: HA-BAK1-ECD; test: Co-immunoprecipitation in vitro; type: binding, Arabidopsis thaliana; conditions: 100 nM each protein, pH 6.3, overnight 4 °C, agarose anti-HA beads
Description: The purified recombinant proteins AtRALF1 and HA-BAK1-ECD and the synthetic peptides RALF1(9–49) and RALF1(I6A) were combined in 200 μl of interaction buffer pH 6.3 (100 mM NaCl; 1 mM PMSF; 0.5%Triton X; 2.7 mM KCl; 8 mM NaH2PO4; 2 mM KH2PO4) overnight at 4 °C. A 100-nM concentration of each protein was used. This solution was incubated with agarose anti-HA beads (EZview Red Anti-HA Affinity Gel, Sigma) for 30 min at 4 °C to immunoprecipitate the proteins, washed 5 times with interaction buffer, eluted in 1X SDS sample buffer containing 10% β-mercaptoethanol and applied to an SDS-PAGE gel. The immunoprecipitated HA-BAK1-ECD and co-immunoprecipitated AtRALF1 were analyzed by protein blotting as described. The primary and secondary antibodies used to detect AtRALF1 were anti-AtRALF1 (1:10,000, Celula B, Immunology Laboratory, UFRGS, Brazil) and goat anti-rabbit HRP-conjugated secondary antibody (1: 10,000, BioRad), respectively.

[8] = test system: BAK1-GFP; test: Co-immunoprecipitation with microsomal fraction of N. benthamiana leaves expressing BAK1-GFP; type: binding, Arabidopsis thaliana; conditions: 600 nM peptide, 1 h, 4 °C, anti-GFP antibody
Description: This assay was performed as previously described with some modifications. The BAK1 coding region was amplified from Arabidopsis genomic cDNA using standard PCR with the primers BAK1 Fw and BAK1 Rv (S1 Table). To generate the p35S-BAK1:GFP plasmid, the fragment was cloned into the pENTR D-TOPO vector and later transferred to the pk7FWG2 vector [56]. Leaves from N. benthamiana plants were agroinfiltrated with p19 vector alone and p19 co-expressed with p35S-BAK1:GFP, as previously described. After 3 days, leaves were homogenized in extraction buffer [300 mM sucrose, 100 mM Tris-HCl pH 7.5, 25 mM EDTA, 25 mM NaF, 1 mM Na2MoO4, 1 mM PMSF, 1 mM DTT and protease inhibitor cocktail (Roche), pH 6.2 adjusted] and centrifuged at 1,000 g for 10 min at 4°C, and the supernatant was then centrifuged at 100,000 g for 50 min at 4°C to precipitate the microsomal pellet. The pellet was resuspended in the extraction buffer plus 0.5% Triton-X and incubated with 600 nM recombinant AtRALF1 or 600 nM RALF1(I6A) for 1 h at 4°C. The complexes were incubated with anti-GFP antibody (Santa Cruz Biotechnology) and Sepharose Beads plus protein A (Life Technologies) overnight at 4°C. […] The AtRALF1/BAK1-GFP complex bound to the beads was eluted with denaturing in 10 μl of 1X loading buffer (NuPAGE LDS buffer) at 95°C for 8 min, then analyzed by SDS-PAGE. The proteins were detected as previously described.

[9] = test system: Arabidopsis seedlings, primary root; test: Root growth inhibition assay, liquid medium, 24-well plates; type: in vivo, Arabidopsis thaliana; conditions: 10 μM, 2 days
Description: (A) and (B) Arabidopsis seedlings (2 days old) were treated with 10 μM AtRALF1 or water (H20) for 2 days. The values are the mean ± SD of at least 25 seedlings. Triple asterisks indicate P < 0.01 (Student’s t test); ns, not significant. (C) Four-day-old seedlings were transferred to media containing different concentrations of AtRALF1, and the primary root length was measured after 8 days of treatment. The data represent the mean value ± SD of 30 seedlings. […] Representative Arabidopsis seedlings after 8 days of treatment with AtRALF1 are shown below. Seedlings were arranged on plates after the treatment for imaging. Scale bars, 1 cm. (D) Two-day-old seedlings were treated with 10 μM AtRALF1 or water for 2 days, and root cell length was measured after 2 days of treatment. Cells from the root endodermis in the differentiation zone were measured. The values are the mean ± SD of approximately 150 cells. Triple asterisks indicate P < 0.01 (Student’s t test); ns, not significant.
Aliquots of 1 ml of medium containing seeds were distributed into 24-well plates. The peptides (10 μM) were added after 2 days, and the root length was measured 2 days after treatment. To maximize root growth, the seeds were germinated in vertical plates. […] The root length was measured 8 days after treatment unless stated otherwise. Control plants were grown under identical conditions in a peptide-free medium. Quantitative data were obtained as previously described. The experiments were repeated at least 3 times using independent biological replicates with similar results. The data from one representative experiment are shown. For cell length measurements, AtRALF1 peptide (10 μM) was added after 2 days of germination, and the cell length was measured after 2 days of treatment. The cell wall was stained with a 1 mg ml^-1 propidium iodide solution (Sigma) in the dark for 15 min and washed twice with water. Cells of the endodermis of the root differentiation zone were imaged and measured using confocal microscopy (Olympus FV1000). Approximately 30 plants from each genetic background and at least 5 cells per root were measured. The wavelengths for excitation and emission were 555 and 655 nm, respectively. Image processing was completed using the Olympus FluoView software.
Arabidopsis seedlings (2-days-old) were treated with 10 μM AtRALF1 or water (H20) for 2 days. The values are the mean ± SD of at least 25 seedlings. Triple asterisks indicate P < 0.01 (Student’s t test); ns, not significant. (PDF) Click here for additional data file.
Supplementary file pgen.1007053.s002.pdf: S2 Fig Loss-of-function bak1 mutants are sensitive to the inhibitory activity of AtRALF23/34 on root growth. Arabidopsis seedlings (2-day-old) were treated with 10 μM RALF1(9–49), RALF1(I6A), AtRALF1, AtRALF23 and AtRALF34 or water (H20) for 2 days. The values are the mean ± SD of at least 20 seedlings. […] (PDF) Click here for additional data file.

[10] = test system: fer4 mutant; conditions: ref [10]; cited from earlier work
Text: Isothermal titration calorimetry has been used to estimate Kd values for plant ligand-receptor kinase pairs, IDA/ HAESA and AtRALF23/FERONIA are among them and our Kd values are consistent with these reported values. […] Previous studies have shown the possibility of additional sites for AtRALF1 binding. In cell suspension cultures of tomato, tobacco and alfalfa, the ^125I-azido-RALF peptide cross-linked to two p ...

[11] = biological target: B2; test: ITC; VP ITC; 0.7 mM BAK1-ECD in the syringe (28 injections of 10 μl) into 0.03 mM peptide in the 1.4 ml cell; 15 mM HEPES pH 6.8; 25 °C; three independent experiments; conditions: both partners purified
[12] = biological target: B1; test: as above; conditions: both partners purified

In the case of `CC(C)[C@H](C)[C@@H](O)[C@H](O)[C@@H](C)[C@H]1CC[C@H]2[C@@H]3COC(=O)[C@H]4C[C@H](O)[C@H](O)C[C@]4(C)[C@H]3CC[C@]12C` [BL, brassinolide, reference compound], the hypocotyl elongation [1] is listed as “a minor increase in hypocotyl elongation”, the “number of lateral roots” value [1] is listed as “no change in the number of lateral roots” and the root length [1] is listed as “no increase in root length”. The “sensitivity of root growth to BL” value [2] was “Reduced sensitivity”, the “BAK1 phosphorylation in threonine residues” value [3] was “increase resulting from the treatment of the seedlings with BL” and the “mobilization of Ca^2+, dependence on BAK1” value [4] was “independent of BAK1”. For the same molecule, the AtRALF23 gene expression ([5]; Arabidopsis seedlings, BL, ref [4],[19]) was “down-regulated”, the “CPD and DWF4 gene expression” value ([5]; BL treatment, ref [9]) was “down-regulated by BL treatment” and the AtEXPA5 expression ([5]; roots of treated seedlings, ref [16]–[18]) was “induced by BL”. For the same molecule, the BAK1 gene induction [6] was “promotes BAK1 gene induction in Arabidopsis plants”.

In the case of “RALF1(I6A): inactive AtRALF1 peptide which has an Ile replaced by an Ala in the conserved YISY domain (ATTKYASYQSLKRNSVPCSRRGASYYNCQNGAQANPYSRGCSKIARCRS; ends and bridges not checked; cysteine pairing not given here; UniProt Q9SRY3 72-120, looked up, variant I6A)”, the “co-immunoprecipitation with HA-BAK1-ECD” value [7] is reported as “did not co-immunoprecipitate with BAK1”, the “co-immunoprecipitation with BAK1-GFP” value [8] is reported as “did not co-immunoprecipitate with BAK1-GFP” and the “activity of negative control peptides on root growth” value [9] is reported as “inactive”.

For “^125I-labeled AtRALF1: AtRALF1 radiolabeled with ^125I, earlier study [10] (ATTKYISYQSLKRNSVPCSRRGASYYNCQNGAQANPYSRGCSKIARCRS; ends and bridges not checked; also: radiolabeled with 125I; UniProt Q9SRY3 72-120, looked up)”, the “reduction of specific binding of 125I-labeled AtRALF1” value [10] is listed as “approximately 40%”.

In the case of B1, the Kd [11] is reported as 4.6 µM and 4.9 µM and 5.8 µM.

For B2, the “stoichiometry N” value [12] was 1.5 and 0.5 and 1.27.
